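All cell lines were grown in 96-well plates and treated with compound for 48 hours. Abbreviation: GI50, concentration required for 50% inhibition of growth. TGI is the concentration that stops growth completely.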
How the values were obtained:
Assay in all cases: growth of human tumour cells (NCI), 48 h
NCI-H226 lung = system: NCI-H226 lung
MOLT-4 leukemia = system: MOLT-4 leukemia
NCI-H23 lung = system: NCI-H23 lung
RPMI-8226 leukemia = system: RPMI-8226 leukemia
BT-549 breast = system: BT-549 breast
SR leukemia = system: SR leukemia
SW-620 colon = system: SW-620 colon
MDA-MB-435 = system: MDA-MB-435
OVCAR-8 ovarian = system: OVCAR-8 ovarian
NCI-H460 lung = system: NCI-H460 lung

| SMILES | GI50 (NCI-H226 lung) | TGI (NCI-H226 lung) | GI50 (MOLT-4 leukemia) | TGI (MOLT-4 leukemia) | GI50 (NCI-H23 lung) | TGI (NCI-H23 lung) | TGI (RPMI-8226 leukemia) | GI50 (BT-549 breast) | TGI (BT-549 breast) | TGI (SR leukemia) | GI50 (SW-620 colon) | TGI (SW-620 colon) | GI50 (MDA-MB-435) | TGI (MDA-MB-435) | TGI (OVCAR-8 ovarian) | GI50 (RPMI-8226 leukemia) | GI50 (NCI-H460 lung) | TGI (NCI-H460 lung) | GI50 (SR leukemia) | GI50 (OVCAR-8 ovarian) |
| --- | --- | --- | --- | --- | --- | --- | --- | --- | --- | --- | --- | --- | --- | --- | --- | --- | --- | --- | --- | --- |
| Nc1ccn(C=C=CCO)c(=O)n1 | > 1000 µM | > 1000 µM | 38800 nM | > 1000 µM | > 1000 µM | > 1000 µM | > 1000 µM | > 1000 µM | > 1000 µM | > 1000 µM | > 1000 µM | > 1000 µM | > 1000 µM | > 1000 µM | > 1000 µM | – | – | – | – | – |
| C[C@H]1[C@H](OC(=O)CCC(=O)O)O[C@@H]2O[C@]3(C)CC[C@H]4[C@H](C)CC[C@@H]1[C@@]24OO3 | 0.956 µM | 34.6 µM | 308 nM | 16.5 µM | 0.383 µM | 10.7 µM | 13 µM | 0.292 µM | 4.55 µM | 4.27 µM | 0.282 µM | 17.8 µM | 0.335 µM | 13.5 µM | > 46.4 µM | 94.8 nM | 1240 nM | 41.6 µM | 238 nM | 445 nM |
| COc1cc2cc(Oc3ccc(NC(=O)Nc4cccc(C(F)(F)F)c4)cc3)c(C)nc2cc1OCCN1CCCCC1 | 1.92 µM | 4.62 µM | – | – | 1.7 µM | 3.26 µM | – | 1.78 µM | 3.28 µM | 2.52 µM | 1.98 µM | 3.6 µM | 1.59 µM | 2.94 µM | – | – | 1830 nM | 3.37 µM | 479 nM | – |
| O/N=C1\CCc2cc(-c3nc(C4CCNCC4)[nH]c3-c3ccncc3)ccc21 | > 25 µM | > 25 µM | > 25000 nM | > 25 µM | > 25 µM | > 25 µM | > 25 µM | > 25 µM | > 25 µM | > 25 µM | > 25 µM | > 25 µM | 12.1 µM | > 25 µM | > 25 µM | > 25000 nM | > 25000 nM | > 25 µM | > 25000 nM | > 25000 nM |
| COc1cccc(NC(=O)c2sc3nc4c(cc3c2N)CCCC4)c1 | 2.6 µM | 43.8 µM | 765 nM | > 100 µM | 0.813 µM | > 100 µM | 78.3 µM | 0.497 µM | 25.4 µM | 12.7 µM | 0.45 µM | > 100 µM | 0.15 µM | 0.44 µM | > 100 µM | 396 nM | 474 nM | > 100 µM | 217 nM | 2580 nM |
| CC1(C)CC(=O)C2=C(C1)NC(SSC1=C(C#N)C(c3ccccc3)C3=C(CC(C)(C)CC3=O)N1)=C(C#N)C2c1ccccc1 (centres undefined) | 32 µg/mL | 70.8 µg/mL | 37.7 µg/mL | 104 µg/mL | 27.7 µg/mL | 50.9 µg/mL | 134 µg/mL | 27.6 µg/mL | 48.6 µg/mL | 103 µg/mL | 28.6 µg/mL | 51.8 µg/mL | 25.7 µg/mL | 49.9 µg/mL | 57.4 µg/mL | 46.5 µg/mL | 27.7 µg/mL | 50.7 µg/mL | 26.5 µg/mL | 31.6 µg/mL |
